The conditions of series [1]: known property named for comparison; cited from earlier work.
The conditions of series [2]: known property named for comparison; cited from earlier work. The source holds these as a separate data set.
Setting [3] is: compared with acesulfame potassium salt.

Consider `CC1=CC(=O)NS(=O)(=O)O1.N` [acesulfame ammonium salt], for which the “difference found by the testers in extensive taste tests” value (acesulfame ammonium versus acesulfame potassium) is reported as “no difference was found”. For the same molecule, under setting [3], the sweet taste result is on record as “exactly the same pleasant sweet taste as the acesulfame potassium salt”, the sweetening power entry is recorded as “the same sweetening power as the acesulfame potassium salt” and the sweetness profile result is “exactly the same sweetness profile”.

As for `CC(=O)O.N` [ammonium acetate salt, ammonium acetate], the “hygroscopicity (comparison salt)” value in series [1] was “hygroscopic”.

In the case of `Cl.N` [ammonium chloride salt, ammonium chloride], the “salty-bitter taste (comparison salt)” value in series [2] was “salty-bitter”.

(Values after patent publication US20020160091A1, “Acesulfame salt, process for its preparation and its use” (priority 2001, published 2002).)
